Assay results as given in patent US20230384333A1 (priority 2020, published 2023).
“Also recorded” adds a separate entry of the source. Where a name gives a salt, the structure may show the parent alone.

How the values were obtained:
psychLight2 = test: PSYLI2 high-content imaging, agonist mode; assay type: cell-based, human; details: 10 μM compound, hit limit 1 SD from vehicle
Experimental: (§1) High-Content Imaging Experiments. Glass bottom 96-well plates (P96-1.5H-N, Cellvis) were coated with 50 μg/mL of poly-D-lysine (Sigma, P6407-5MG) and 10 μg/mL laminin (Sigma, L2020) overnight in an incubator (37° C., 5% CO2). […] Immediately prior to an experiment, stock solutions of drugs in DMSO (10 mM) were first diluted 1:100 in imaging media distributed across an empty 96-well plate (treatment plate) in triplicates following a randomized plate map. […] Cells grown in a separate 96-well plate (assay plate) were gently washed (3×) with imaging media, and the wells were filled with an appropriate volume of imaging media for the respective experiment (vide infra).
(§2) For agonist mode, […] of imaging media was added to each well of the assay plate. Wells were then imaged on a Lecia DMi8 using Leica Application Suite X (V3.6.0.20104) at 40×(N.A.=0.6) with 5 regions of interest (ROI) taken per well using the default 5 ROI pattern for each well with no bias to location and no overlap of the ROIs (exposure=350 ms, LED power=80%). Next, 20 μL from the treatment plate was transferred to the assay plate for a total 1:1000 dilution of drug (10 μM drug, 0.1% DMSO). […] All final concentrations of drugs were 10 μM (0.1% DMSO) in agonist mode unless stated otherwise. After 5 min of incubation, the same sites were re-imaged using the same settings.
Once imaging was complete, the images were exported, put into a stack, and analyzed using ImageJ Fiji (ver. 1.51v) by using the rectangle function to draw an ROI around the cell membrane (one cell per image) on both the pre- and posttreatment images. ROI sizes within each plate were kept the same and saved to the ROI manager in ImageJ (ctrl+T). Images were then measured using the “multi measure” function in the ROI manager. Measurements were saved and exported. Analysis of the data was done by taking the average of each individual well's ROIs before and after drugs were added. Then the ΔF/F values for each well were calculated using the following equation: […]
as §1, with “Glass” for “High-Content Imaging Experiments. Glass”, “50 µg/mL” for “50 μg/mL”, “10 pg/mL of” for “10 μg/mL”, “were” for “were first”, “in triplicate” for “in triplicates”, “washed 3×” for “washed (3×)”
as §2, with “agonist mode experiments,” for “agonist mode,”, “media were” for “media was”, “20 pL” for “20 μL”, “plate containing” for “plate for”, “a” for “a total”, “(10 pM as the final concentration in” for “(10 μM drug,”
Once imaging was complete, the images were exported, and analyzed using self-written MATLAB script. Script will be deposit on to Github. In short, segmentation was performed on individual images and a mask highlighting the membrane of the HEK293T cells was generated. Pixel intensities were obtained from the mask-highlighted area and exported into Excel. The ΔF/F values for each well were calculated using the following equation: […]

[1] = Plate reader screening for compound fluorescence (cell-free); assay type: physicochemical; details: 10 μM, excitation 465 nm, emission 518 nm
[2] = tested on: 5-HT levels reported by psychLight2 in DRN, BNST, BLA, OFC; assay type: in vivo, mouse; details: 10 mg/kg, 30 mins prior to imaging
[3] = tested on: psychLight2 response to electrically evoked 5-HT release; set-up: species or system mouse; details: 50 mM escitalopram as printed

SMILES	screen outcome in agonist mode (psychLight2)	origin of fluorescence signal, cell-free vs PSYLI2 cells [1]	effect on 5-HT dynamics following foot shock [2]	ΔF/F of psychLight2 response to electrical stimuli [3]
CCN(CC)C(=O)[C@@H]1C=C2c3cccc4[nH]c(Br)c(c34)C[C@H]2N(C)C1 [BOL-148, 2-bromo-lysergic acid di-ethylamide]	producing positive signals; also recorded: produced unexpected fluorescence signals	due to the inherent fluorescence of these compounds, and not due to activation of the sensor	–	–
CN(C)CCC[C@@]1(c2ccc(F)cc2)OCc2cc(C#N)ccc21 [escitalopram, escitalopram oxalate]	–	–	mitigated the reduction in 5-HT levels observed following foot shock; also recorded: delayed the return of elevated 5-HT levels to baseline	18.4%±4.3%
